Laboratory results reported in patent US20160326142A1, “PYRAZOLE CARBOXAMIDE COMPOUNDS, COMPOSITIONS AND METHODS OF USE” (Genentech, Inc., priority 2012, published 2016).

What follows are molecules tested against T1, ITK (Homo sapiens, UniProt Q08881) (assay: ITK enzyme assay (Caliper or LCMS peptide phosphorylation)). Conditions: purified ITK (Invitrogen PV3875), 20 μM ATP, Ki by Morrison's quadratic equation.
T1 construct: purchased Invitrogen PV3875
T1 sequence (Q08881 1-620): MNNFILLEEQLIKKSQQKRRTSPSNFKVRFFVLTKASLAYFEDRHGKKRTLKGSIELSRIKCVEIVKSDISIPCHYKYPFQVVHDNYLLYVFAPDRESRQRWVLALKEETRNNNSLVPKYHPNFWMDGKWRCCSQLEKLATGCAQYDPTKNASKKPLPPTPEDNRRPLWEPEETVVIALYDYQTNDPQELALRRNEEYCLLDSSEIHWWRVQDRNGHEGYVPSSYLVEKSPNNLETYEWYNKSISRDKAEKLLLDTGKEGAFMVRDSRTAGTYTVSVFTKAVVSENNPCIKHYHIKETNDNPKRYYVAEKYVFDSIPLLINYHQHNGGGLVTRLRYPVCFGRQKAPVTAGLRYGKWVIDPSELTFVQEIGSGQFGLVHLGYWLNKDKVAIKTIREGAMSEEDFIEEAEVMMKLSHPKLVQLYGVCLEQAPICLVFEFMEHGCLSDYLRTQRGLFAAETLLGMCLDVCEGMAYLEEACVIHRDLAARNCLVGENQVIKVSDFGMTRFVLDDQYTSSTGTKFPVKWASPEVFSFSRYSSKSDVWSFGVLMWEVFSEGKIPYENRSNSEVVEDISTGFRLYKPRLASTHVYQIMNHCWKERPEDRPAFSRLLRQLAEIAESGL
Assay type: biochemical
Procedure, shortened: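 Purified human ITK peptide phosphorylation, quenched with EDTA (50 mM final) for Caliper LabChip separation or TCA (5% v/v final) for UPLC-MS/MS MRM quantification. Ki derived via Morrison tight-binding equation, corrected for competitive inhibition using ATP concentration relative to Km,app.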

| Compound | Ki |
| --- | --- |
| CC1(O)CCc2c(C(=O)Nc3cnn(Cc4ccccc4)c3)n[nH]c2C1 (single isomer, unassigned) [Example 51a, N-(1-benzyl-1H-pyrazol-4-yl)-6-hydroxy-6-methyl-4,5,6,7-tetrahydro-1H-indazole-3-carboxamide] | 160 nM |
| CN(C)CCC(c1ccccc1)n1cc(NC(=O)c2n[nH]c3c2CC2CC2(C)C3)cn1 (single isomer, unassigned) [Example 52a, N-(1-(3-(dimethylamino)-1-phenylpropyl)-1H-pyrazol-4-yl)-5a-methyl-1,4,4a,5,5a,6-hexahydrocyclopropa[f]indazole-3-carboxamide] | 0.2 nM |
| CN(C)CCC(c1ccccc1)n1cc(NC(=O)c2n[nH]c3c2CC2CC2(C)C3)cn1 (single isomer, unassigned) [Example 52b, N-(1-(3-(dimethylamino)-1-phenylpropyl)-1H-pyrazol-4-yl)-5a-methyl-1,4,4a,5,5a,6-hexahydrocyclopropa[f]indazole-3-carboxamide] | 17 nM |
| CN(C)CCC(c1ccccc1)n1cc(NC(=O)c2n[nH]c3c2CC2CC2(C)C3)cn1 (single isomer, unassigned) [Example 52c, N-(1-(3-(dimethylamino)-1-phenylpropyl)-1H-pyrazol-4-yl)-5a-methyl-1,4,4a,5,5a,6-hexahydrocyclopropa[f]indazole-3-carboxamide] | 2 nM |
| CN(C)CCC(c1ccccc1)n1cc(NC(=O)c2n[nH]c3c2CC2CC2(C)C3)cn1 (single isomer, unassigned) [Example 52d, N-(1-(3-(dimethylamino)-1-phenylpropyl)-1H-pyrazol-4-yl)-5a-methyl-1,4,4a,5,5a,6-hexahydrocyclopropa[f]indazole-3-carboxamide] | 100 nM |
| CC1(C)CCc2c(C(=O)Nc3cnn(C(CO)c4ccccc4)c3)n[nH]c2C1 (single isomer, unassigned) [Example 53a, N-(1-(2-hydroxy-1-phenylethyl)-1H-pyrazol-4-yl)-6,6-dimethyl-4,5,6,7-tetrahydro-1H-indazole-3-carboxamide] | 5 nM |
| CC1(C)CCc2c(C(=O)Nc3cnn(C(CO)c4ccccc4)c3)n[nH]c2C1 (single isomer, unassigned) [Example 53b, N-(1-(2-hydroxy-1-phenylethyl)-1H-pyrazol-4-yl)-6,6-dimethyl-4,5,6,7-tetrahydro-1H-indazole-3-carboxamide] | 29 nM |
| CCC(c1cccnc1)n1cc(NC(=O)c2n[nH]c3c2CCC(C)(C)C3)cn1 (single isomer, unassigned) [Example 54a, 6,6-dimethyl-N-(1-(1-(pyridin-3-yl)propyl)-1H-pyrazol-4-yl)-4,5,6,7-tetrahydro-1H-indazole-3-carboxamide] | 1 nM |
| CCC(c1cccnc1)n1cc(NC(=O)c2n[nH]c3c2CCC(C)(C)C3)cn1 (single isomer, unassigned) [Example 54b, 6,6-dimethyl-N-(1-(1-(pyridin-3-yl)propyl)-1H-pyrazol-4-yl)-4,5,6,7-tetrahydro-1H-indazole-3-carboxamide] | 6 nM |
| CC1(C)CCc2c(C(=O)Nc3cnn(C(c4ccccc4)C(C)(C)O)c3)n[nH]c2C1 (single isomer, unassigned) [Example 55a, N-(1-(2-hydroxy-2-methyl-1-phenylpropyl)-1H-pyrazol-4-yl)-6,6-dimethyl-4,5,6,7-tetrahydro-1H-indazole-3-carboxamide] | 5 nM |
| CC1(C)CCc2c(C(=O)Nc3cnn(C(c4ccccc4)C(C)(C)O)c3)n[nH]c2C1 (single isomer, unassigned) [Example 55b, N-(1-(2-hydroxy-2-methyl-1-phenylpropyl)-1H-pyrazol-4-yl)-6,6-dimethyl-4,5,6,7-tetrahydro-1H-indazole-3-carboxamide] | 18 nM |
| CCC1(C)CCc2c(C(=O)Nc3cnn(Cc4ccccc4)c3)n[nH]c2C1 (single isomer, unassigned) [Example 56a, N-(1-benzyl-1H-pyrazol-4-yl)-6-ethyl-6-methyl-4,5,6,7-tetrahydro-1H-indazole-3-carboxamide] | 9 nM |
